Test results as given in patent publication US20080038809A1, “ISOLATED LECTIN POLYPEPTIDES CONSISTING OF TRUNCATED […] UDP-GalNAc:POLYPEPTIDE N- ACETYLGALACTOSAMINYLTRANSFERASES” (GLYCOZYM APS, priority 2002, published 2008).
One block for each compound: values may come before it.

Columns and labels:
[1] = molecular target: T1, secreted soluble GalNAc-T2 (Homo sapiens, UniProt Q10471); assay: Inhibition of secreted soluble GalNAc-T2 (sT2) binding to GalNAc-MUC1 glycopeptide, ELISA
T1 construct: 6xHis (N); thrombin cleavage site (N); T7 antibody site (N); made in house; host or cells: baculovirus (pAcGP67A), High Five insect cells
Experimental: (§1) Direct binding ELISA assay was developed as follows: Polystyrene microtiter plates (Maxisorb, Nunc, Denmark) were coated with peptides or enzymatically glycosylated glycopeptides in PBS overnight at 4° C. Plates were washed and blocked with 0.1% Tween20 and 0.2% BSA in PBS for 1 h at room temperature, followed by incubation with biotinylated proteins in PBS with 0.05% Tween20 for 2 h at room temperature. After four washes with PBS, plates were incubated with 1:2,000 dilution streptavidin-HRP (Sigma) in PBS for 30 min at room temperature and washed four times with PBS. Development was performed with 0.5 mg/ml o-phenylenediamine and 0.02% H2O2 at room temperature for 15 min, and reaction stopped by adding 100 μl/well of 0.5 N H2SO4. Competitive inhibition assays were done at end-point titers of GalNAc-transferase proteins with one hour preincubations with inhibitor.
(§2) Inhibition experiments were used to further define the binding specificity of GalNAc-T2 and -T4 secreted soluble enzymes as well as lectin domains compared to Helix Pomatia lectin (Table IV).

[2] = molecular target: T2, secreted soluble GalNAc-T4 (Homo sapiens, UniProt Q8N4A0); assay: Inhibition of secreted soluble GalNAc-T4 (sT4) binding to GalNAc-MUC1 glycopeptide, ELISA
T2 construct: 6xHis (N); thrombin cleavage site (N); T7 antibody site (N); made in house; host or cells: baculovirus (pAcGP67A), High Five insect cells
Experimental: as §1, §2

GalNAc-T2 lectin domain = molecular target: T3, GalNAc-T2 lectin domain (Homo sapiens, UniProt Q10471); assay: Inhibition of GalNAc-T2 lectin domain (T2ld) binding to GalNAc-MUC1 glycopeptide, ELISA
T3 construct: comprises amino acid residues 408-571 of GALNT2; made in house; host or cells: baculovirus (pAcGP67-A), virus made in Sf9, protein produced in High Five insect cells
T3 sequence (Q10471 408-571): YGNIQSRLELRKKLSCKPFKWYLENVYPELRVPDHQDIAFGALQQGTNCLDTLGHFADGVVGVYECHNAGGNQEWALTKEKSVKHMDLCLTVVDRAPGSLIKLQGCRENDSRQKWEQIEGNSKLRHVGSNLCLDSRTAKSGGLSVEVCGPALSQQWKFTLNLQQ
Experimental: as §1
(§3) In binding studies using lectins without biotinylation antibodies to the HIS-tag and the T7-tag, or in some experiments antibodies raised to GalNAc-T2 and -T4 enzymes were used to detect binding.
as §2

GalNAc-MUC1 glycopeptide = assay: Direct binding assay (ELISA) of biotinylated GalNAc-transferases to GalNAc-MUC1 glycopeptide (FIG. 4); parameters: species or system human; settings: coated at 1 μg/ml, biotinylated enzymes
Experimental: (§4) FIG. 4 is a plot of absorbance v. ligand dilution showing GalNAc-transferase binding to GalNAc-MUC1 glycopeptide. A direct binding assay (ELISA) mediated by the lectin domain was developed and validated with soluble secreted GalNAc-T4 and -T2 enzyme proteins. ELISA plates were coated with peptides or glycopeptides at 1 μg/ml, blocked with BSA, and incubated with biotinylated enzymes. After washing, bound enzyme proteins were detected with HRP-Streptavidin as described in detail in Example 2. Secreted soluble constructs of GalNAc-transferases which are enzymatically active may bind to (glyco)peptide substrates through their catalytic units as originally described for GalNAc-T2^32.
as §1, with “Development was performed with 0.5 mg/ml o-phenylenediamine and 0.02% H2O2 at room temperature for 15 min, and reaction stopped by adding 100 μl/well of 0.5 N H2SO4. Competitive inhibition assays were done at end-point titers of GalNAc-transferase proteins with one hour preincubations with inhibitor.” left out

[3] = test system: unglycosylated MUC1 peptide; assay: Direct binding assay (ELISA) of biotinylated GalNAc-transferases to unglycosylated MUC1 peptide (FIG. 4); parameters: species or system human; settings: coated at 1 μg/ml, biotinylated enzymes
Experimental: as §4
as §1, with “Development was performed with 0.5 mg/ml o-phenylenediamine and 0.02% H2O2 at room temperature for 15 min, and reaction stopped by adding 100 μl/well of 0.5 N H2SO4. Competitive inhibition assays were done at end-point titers of GalNAc-transferase proteins with one hour preincubations with inhibitor.” left out

GalNAc-T4 lectin domain = molecular target: T4, GalNAc-T4 lectin domain (Homo sapiens, UniProt Q8N4A0); assay: Inhibition of GalNAc-T4 lectin domain (T4ld) binding to GalNAc-MUC1 glycopeptide, ELISA
T4 construct: comprises amino acid residues 405-578 of GALNT4; made in house; host or cells: baculovirus (pAcGP67-A), virus made in Sf9, protein produced in High Five insect cells
Experimental: as §1, §3, §2

[4] = molecular target: human GalNAc-T4 (UDP-GalNAc:polypeptide N-acetylgalactosaminyltransferase T4) isolated truncated lectin domain (T4ld), HIS-tagged, amino acid residues 405-578 o (Homo sapiens, UniProt Q8N4A0); assay: biochemical; type: binding; settings: isolated lectin domain
Excerpt: (§5) In order to minimize the size and functional complexity of GalNAc-transferase lectins to be used as probes for binding studies, we used multiple sequence alignment analysis to predict and design suitable expression constructs for isolated lectin domains (FIG. 2). In the present invention a direct binding assay was developed using isolated lectin domains of GalNAc-T4 and -T2 with minimal size (FIG. 5). […] The lectin Helix Pomatia (HP) was used as a control plant lectin with known binding specificity for […].
as §1, §3, §2
(§6) The ligand target used in this Example is a GalNAc-MUC1 glycopeptide produced enzymatically from synthetic peptides.

[5] = molecular target: T5, human GalNAc-T2 (UDP-GalNAc:polypeptide N-acetylgalactosaminyltransferase T2) isolated truncated lectin domain (T2ld), HIS-tagged, amino acid residues 408-571 o (Homo sapiens, UniProt Q10471); type: binding
T5 sequence (Q10471 408-571): T3 sequence (Q10471 408-571)
Excerpt: as §5, §1, §3, §2, §6

[6] = molecular target: human GalNAc-T2 (UDP-GalNAc:polypeptide N-acetylgalactosaminyltransferase T2), secreted soluble enzyme (sT2), wild type (Homo sapiens, UniProt Q10471); assay: biochemical; settings: binding to GalNAc-MUC1 glycopeptide
Experimental: The pH of 1 ml purified protein (0.3 mg/ml) in PBS was adjusted to pH 9 with 1 M NaOH and 40 μl N-hydroxy-succinimidobiotin (Sigma) dissolved in DMF (10 mg/ml) was added. The solution was mixed end-over-end for 2 hours at room temperature, and dialyzed three times against PBS and an equal volume of glycerol was added. The biotinylated proteins were stored at −20° C. in 50% glycerol until use.
Glycopeptides were purified by C-18 reverse phase HPLC. Peptides were custom synthesized by Neosystems (Strasbourg). Biotinylated Helix Pomatia lectin (HPA) was from KemEnTec (Denmark). Anti-MUC1 HMFG2 monoclonal antibody was a generous gift from Joyce Taylor-Papadimitriou.
as §1, with “Development was performed with 0.5 mg/ml o-phenylenediamine and 0.02% H2O2 at room temperature for 15 min, and reaction stopped by adding 100 μl/well of 0.5 N H2SO4. Competitive inhibition assays were done at end-point titers of GalNAc-transferase proteins with one hour preincubations with inhibitor.” left out

T1 sequence (Q10471 52-571 limits assumed): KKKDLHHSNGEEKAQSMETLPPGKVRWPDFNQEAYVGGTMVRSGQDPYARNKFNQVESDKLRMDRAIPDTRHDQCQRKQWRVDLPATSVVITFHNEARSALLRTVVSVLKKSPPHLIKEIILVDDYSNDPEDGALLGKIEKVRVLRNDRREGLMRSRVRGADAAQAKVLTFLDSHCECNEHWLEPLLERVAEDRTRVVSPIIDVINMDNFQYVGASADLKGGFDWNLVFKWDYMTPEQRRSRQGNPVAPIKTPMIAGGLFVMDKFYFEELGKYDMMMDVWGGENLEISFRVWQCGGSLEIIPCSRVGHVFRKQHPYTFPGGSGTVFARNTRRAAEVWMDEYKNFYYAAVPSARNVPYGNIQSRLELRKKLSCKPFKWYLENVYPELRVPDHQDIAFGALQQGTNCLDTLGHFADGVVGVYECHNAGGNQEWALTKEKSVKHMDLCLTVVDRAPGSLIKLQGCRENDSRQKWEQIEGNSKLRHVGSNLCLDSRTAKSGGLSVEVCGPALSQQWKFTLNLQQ
T2 sequence (Q8N4A0 36-578 limits assumed): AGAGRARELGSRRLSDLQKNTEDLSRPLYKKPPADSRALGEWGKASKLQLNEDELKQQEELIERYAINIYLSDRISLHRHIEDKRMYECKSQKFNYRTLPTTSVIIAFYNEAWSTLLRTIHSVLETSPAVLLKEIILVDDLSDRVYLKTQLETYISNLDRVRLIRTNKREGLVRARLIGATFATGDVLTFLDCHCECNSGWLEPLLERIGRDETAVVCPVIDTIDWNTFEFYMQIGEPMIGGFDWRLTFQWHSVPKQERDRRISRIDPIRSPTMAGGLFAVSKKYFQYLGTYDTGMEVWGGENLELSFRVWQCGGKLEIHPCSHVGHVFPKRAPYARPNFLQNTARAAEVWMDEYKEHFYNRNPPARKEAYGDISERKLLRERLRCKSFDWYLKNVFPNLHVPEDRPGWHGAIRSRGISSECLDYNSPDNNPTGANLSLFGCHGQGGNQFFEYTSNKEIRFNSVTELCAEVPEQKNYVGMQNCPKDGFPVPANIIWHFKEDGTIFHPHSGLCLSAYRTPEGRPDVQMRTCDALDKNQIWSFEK
human GalNAc-T4 (UDP-GalNAc:polypeptide N-acetylgalactosaminyltransferase T4) isolated truncated lectin domain (T4ld), HIS-tagged, amino acid residues 405-578 o, sequence (Q8N4A0 405-578): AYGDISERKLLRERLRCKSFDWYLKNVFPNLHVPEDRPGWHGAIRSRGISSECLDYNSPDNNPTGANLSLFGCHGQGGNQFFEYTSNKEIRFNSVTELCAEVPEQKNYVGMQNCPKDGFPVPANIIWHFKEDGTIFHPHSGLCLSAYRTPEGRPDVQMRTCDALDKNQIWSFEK
T4 sequence (Q8N4A0 405-578): as above
human GalNAc-T2 (UDP-GalNAc:polypeptide N-acetylgalactosaminyltransferase T2), secreted soluble enzyme (sT2), wild type, sequence (Q10471 52-571 limits assumed): as the sequence (Q10471 52-571 limits assumed) above

Compound: GalNAc-T4 wild type: soluble secreted human GalNAc-T4 enzyme protein, biotinylated
binding to GalNAc-MUC1 glycopeptide (GalNAc-MUC1 glycopeptide): selectively bind
binding to unglycosylated MUC1 peptide [3]: no significant binding

Compound: CC(=O)N[C@H]1[C@@H](Oc2ccccc2[N+](=O)[O-])O[C@H](CO)[C@H](O)[C@@H]1O [oNPαGalNAc]
IC50 (GalNAc-T4 lectin domain): 5 mM
IC50 [1]: 7 mM
IC50 [2]: 0.5 mM

Compound: CC(=O)N[C@H]1[C@H](Oc2ccccc2[N+](=O)[O-])O[C@H](CO)[C@H](O)[C@@H]1O [oNPβGalNAc]
IC50 [6]: 10 mM

More lines, now with the values ahead:

IC50 [1]: > 10 mM
IC50 [2]: 1 mM
IC50 (GalNAc-T2 lectin domain): > 10 mM
Compound: CC(=O)N[C@H]1[C@@H](Oc2ccc([N+](=O)[O-])cc2)O[C@H](CO)[C@H](O)[C@@H]1O [pNPαGalNAc]

inhibition of GalNAc-T4 lectin domain binding (in words) [4]: no inhibitory effect
inhibition of GalNAc-T2 lectin domain binding (in words) [5]: no inhibitory effect
Compound: OC[C@H]1OC(O)[C@H](O)[C@@H](O)[C@H]1O (some centres unmarked) [Gal]
